PubChem BioAssay (NCI)
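Five compound concentrations were applied to cells in 96-well plates for 48 hours; endpoints were derived by simple linear interpolation of the resulting dose-response curve. Abbreviation: GI50, concentration required for 50% inhibition of growth. TGI denotes the concentration required for complete inhibition of growth.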

Legend:
Assay in all cases: NCI anticancer screen, dose series, 48 h
[1] = system: 786-0 renal
[2] = system: A498 renal
[3] = system: A549 NSCLC
[4] = system: ACHN renal
[5] = system: BT-549 breast
[6] = system: CAKI-1 renal
[7] = system: CCRF-CEM leukemia
[8] = system: COLO 205 colon
[9] = system: DU-145 prostate
[10] = system: EKVX NSCLC
[11] = system: HCC-2998 colon
[12] = system: HCT-116 colon
[13] = system: HCT-15 colon
[14] = system: HL-60(TB) leukemia
[15] = system: HOP-62 NSCLC
[16] = system: HOP-92 NSCLC
[17] = system: HS 578T breast
[18] = system: HT29 colon
[19] = system: IGROV1 ovarian
[20] = system: K-562 leukemia
[21] = system: KM12 colon
[22] = system: LOX IMVI melanoma
[23] = system: M14 melanoma
[24] = system: MALME-3M melanoma
[25] = system: MCF7 breast
[26] = system: MDA-MB-231 breast
[27] = system: MDA-MB-435
[28] = system: MDA-MB-468 breast
[29] = system: NCI-H226 lung
[30] = system: NCI-H23 lung
[31] = system: NCI-H460 lung
[32] = system: NCI-H522 lung
[33] = system: NCI/ADR-RES ovarian
[34] = system: OVCAR-3 ovarian
[35] = system: OVCAR-5 ovarian
[36] = system: OVCAR-8 ovarian
[37] = system: PC-3 prostate
[38] = system: RPMI-8226 leukemia
[39] = system: RXF 393 renal
[40] = system: SF-268 CNS
[41] = system: SF-295 CNS
[42] = system: SF-539 CNS
[43] = system: SK-MEL-2 melanoma
[44] = system: SK-MEL-28 melanoma
[45] = system: SK-MEL-5 melanoma
[46] = system: SK-OV-3 ovarian
[47] = system: SN12C renal
[48] = system: SNB-19 CNS
[49] = system: SNB-75 CNS
[50] = system: SW-620 colon
[51] = system: T-47D breast
[52] = system: TK-10 renal
[53] = system: U251 CNS
[54] = system: UACC-257 melanoma
[55] = system: UACC-62 melanoma
[56] = system: UO-31 renal
[57] = system: MOLT-4 leukemia
[58] = system: OVCAR-4 ovarian
[59] = system: SR leukemia

CN(C)c1nc(NCCNS(=O)(=O)c2ccc(C3=Nc4c(N)nc(N)nc4NC(c4ccc(Cl)cc4)C3)cc2)nc(Nc2ccc(F)cc2)n1 (stereo unspecified)
GI50 [1]: 6210 nM
TGI [1]: > 100000 nM
GI50 [2]: 58400 nM
TGI [2]: > 100000 nM
GI50 [3]: > 100000 nM
TGI [3]: > 100000 nM
GI50 [4]: > 100000 nM
TGI [4]: > 100000 nM
GI50 [5]: 3960 nM
TGI [5]: 28700 nM
GI50 [6]: 8070 nM
TGI [6]: > 100000 nM
GI50 [7]: 2920 nM
TGI [7]: > 100000 nM
GI50 [8]: 5650 nM
TGI [8]: 25600 nM
GI50 [9]: > 100000 nM
TGI [9]: > 100000 nM
GI50 [10]: 5050 nM
TGI [10]: > 100000 nM
GI50 [11]: 3140 nM
TGI [11]: 18400 nM
GI50 [12]: 3770 nM
TGI [12]: > 100000 nM
GI50 [13]: > 100000 nM
TGI [13]: > 100000 nM
GI50 [14]: 2720 nM
TGI [14]: 13300 nM
GI50 [15]: > 100000 nM
TGI [15]: > 100000 nM
GI50 [16]: 2530 nM
TGI [16]: 13200 nM
GI50 [17]: 7150 nM
TGI [17]: > 100000 nM
GI50 [18]: 2680 nM
TGI [18]: 7540 nM
GI50 [19]: 9950 nM
TGI [19]: > 100000 nM
GI50 [20]: 3080 nM
TGI [20]: > 100000 nM
GI50 [21]: 3980 nM
TGI [21]: > 100000 nM
GI50 [22]: 1770 nM
TGI [22]: 3550 nM
GI50 [23]: 3150 nM
TGI [23]: 11500 nM
GI50 [24]: 3860 nM
TGI [24]: 19200 nM
GI50 [25]: 2890 nM
TGI [25]: > 100000 nM
GI50 [26]: 3730 nM
TGI [26]: 65700 nM
GI50 [27]: 5170 nM
TGI [27]: > 100000 nM
GI50 [28]: 1920 nM
TGI [28]: 4920 nM
GI50 [29]: > 100000 nM
TGI [29]: > 100000 nM
GI50 [30]: 72700 nM
TGI [30]: > 100000 nM
GI50 [31]: 4490 nM
TGI [31]: > 100000 nM
GI50 [32]: 16000 nM
TGI [32]: > 100000 nM
GI50 [33]: > 100000 nM
TGI [33]: > 100000 nM
GI50 [34]: 7450 nM
TGI [34]: > 100000 nM
GI50 [35]: > 100000 nM
TGI [35]: > 100000 nM
GI50 [36]: > 100000 nM
TGI [36]: > 100000 nM
GI50 [37]: 3440 nM
TGI [37]: > 100000 nM
GI50 [38]: 3190 nM
TGI [38]: > 100000 nM
GI50 [39]: 2270 nM
TGI [39]: 8750 nM
GI50 [40]: 5740 nM
TGI [40]: > 100000 nM
GI50 [41]: 6200 nM
TGI [41]: > 100000 nM
GI50 [42]: 3300 nM
TGI [42]: > 100000 nM
GI50 [43]: 3340 nM
TGI [43]: 14000 nM
GI50 [44]: 8220 nM
TGI [44]: > 100000 nM
GI50 [45]: 3450 nM
TGI [45]: 14300 nM
GI50 [46]: > 100000 nM
TGI [46]: > 100000 nM
GI50 [47]: 7380 nM
TGI [47]: > 100000 nM
GI50 [48]: 5670 nM
TGI [48]: > 100000 nM
GI50 [49]: 3760 nM
TGI [49]: > 100000 nM
GI50 [50]: 5950 nM
TGI [50]: > 100000 nM
GI50 [51]: 7930 nM
TGI [51]: > 100000 nM
GI50 [52]: > 100000 nM
TGI [52]: > 100000 nM
GI50 [53]: 5140 nM
TGI [53]: > 100000 nM
GI50 [54]: 8070 nM
TGI [54]: > 100000 nM
GI50 [55]: 6460 nM
TGI [55]: > 100000 nM
GI50 [56]: > 100000 nM
TGI [56]: > 100000 nM

OCc1[nH]nc2cc(Nc3ncc4ccc(Br)c(OC5CCC(O)CC5)c4n3)ccc12 (stereo unspecified)
GI50 [1]: 37.1 nM
TGI [1]: 2700 nM
GI50 [2]: 49.5 nM
TGI [2]: 231 nM
GI50 [3]: 157 nM
TGI [3]: > 100000 nM
GI50 [4]: 23.1 nM
GI50 [5]: 27.4 nM
TGI [5]: 133 nM
GI50 [6]: 21.2 nM
TGI [6]: 2400 nM
GI50 [7]: 31.4 nM
TGI [7]: > 100000 nM
GI50 [8]: 31.7 nM
TGI [8]: 145 nM
GI50 [9]: 35.9 nM
TGI [9]: > 100000 nM
GI50 [10]: 67.3 nM
TGI [10]: 414 nM
GI50 [11]: 51.2 nM
TGI [11]: 519 nM
GI50 [13]: 36 nM
TGI [13]: 1540 nM
GI50 [14]: 14.7 nM
TGI [14]: 105 nM
GI50 [15]: 34 nM
TGI [15]: 22800 nM
GI50 [16]: 92.2 nM
TGI [16]: > 100000 nM
GI50 [17]: 44.4 nM
TGI [17]: 1850 nM
GI50 [18]: 103 nM
TGI [18]: 487 nM
GI50 [19]: 32.6 nM
TGI [19]: 1190 nM
GI50 [20]: 78.8 nM
TGI [20]: > 100000 nM
GI50 [21]: 34.7 nM
TGI [21]: 358 nM
GI50 [22]: 16.4 nM
TGI [22]: 59.2 nM
GI50 [23]: 45 nM
TGI [23]: 1740 nM
GI50 [24]: 88.2 nM
TGI [24]: 517 nM
GI50 [25]: 19.9 nM
TGI [25]: 1100 nM
GI50 [26]: 30.1 nM
TGI [26]: 505 nM
GI50 [27]: 39.9 nM
TGI [27]: 2470 nM
GI50 [28]: 30.1 nM
TGI [28]: 100 nM
GI50 [57]: 37.2 nM
TGI [57]: > 100000 nM
GI50 [29]: 16.4 nM
TGI [29]: 77 nM
GI50 [30]: 40.2 nM
TGI [30]: 257 nM
GI50 [31]: 47.4 nM
TGI [31]: 4380 nM
GI50 [32]: 202 nM
TGI [32]: 744 nM
GI50 [33]: 226 nM
TGI [33]: 12200 nM
GI50 [34]: 25.6 nM
TGI [34]: 171 nM
GI50 [58]: 44.2 nM
TGI [58]: 1760 nM
GI50 [35]: 50 nM
TGI [35]: 316 nM
GI50 [36]: 40.5 nM
TGI [36]: > 71900 nM
GI50 [37]: 50.2 nM
TGI [37]: > 100000 nM
GI50 [38]: 276 nM
TGI [38]: > 100000 nM
GI50 [39]: 19.3 nM
TGI [39]: 46.7 nM
GI50 [40]: 33.5 nM
TGI [40]: 1320 nM
GI50 [41]: 40.6 nM
TGI [41]: 508 nM
GI50 [42]: 22.5 nM
TGI [42]: 69.6 nM
GI50 [43]: 47.6 nM
TGI [43]: 213 nM
GI50 [44]: 49.9 nM
TGI [44]: 963 nM
GI50 [45]: 27 nM
TGI [45]: 428 nM
GI50 [46]: 376 nM
TGI [46]: > 100000 nM
GI50 [47]: 35 nM
TGI [47]: 20000 nM
GI50 [48]: 25.8 nM
TGI [48]: > 44800 nM
GI50 [49]: 35.9 nM
TGI [49]: 296 nM
TGI [59]: > 100000 nM
GI50 [50]: 25.7 nM
TGI [50]: 1960 nM
GI50 [51]: 41.1 nM
TGI [51]: 904 nM
GI50 [52]: 78.7 nM
TGI [52]: 729 nM
GI50 [53]: 39.1 nM
TGI [53]: > 100000 nM
GI50 [54]: 234 nM
TGI [54]: 9780 nM
GI50 [55]: 35.9 nM
TGI [55]: 379 nM
GI50 [56]: 28.8 nM
TGI [56]: 278 nM
